Our source for the remaining binding values is US10870647B2, “Imidazopyridine derivative, method for preparing same, and pharmaceutical composition containing same as active ingredient for preventing or treating cancer” (DAEGU-GYEONGBUK MEDICAL INNOVATION FOUNDATION, priority 2016, dated 2020).

Test in all cases: Kinase selectivity, scanMAX Kinase assay panel (DiscoverX), % control at 1 uM
Format in all cases: binding

Test [1] addresses T1, scanMAX Kinase assay panel (Homo sapiens, UniProt O14733).
T1 construct: purchased DiscoverX
T1 sequence (O14733 1-419): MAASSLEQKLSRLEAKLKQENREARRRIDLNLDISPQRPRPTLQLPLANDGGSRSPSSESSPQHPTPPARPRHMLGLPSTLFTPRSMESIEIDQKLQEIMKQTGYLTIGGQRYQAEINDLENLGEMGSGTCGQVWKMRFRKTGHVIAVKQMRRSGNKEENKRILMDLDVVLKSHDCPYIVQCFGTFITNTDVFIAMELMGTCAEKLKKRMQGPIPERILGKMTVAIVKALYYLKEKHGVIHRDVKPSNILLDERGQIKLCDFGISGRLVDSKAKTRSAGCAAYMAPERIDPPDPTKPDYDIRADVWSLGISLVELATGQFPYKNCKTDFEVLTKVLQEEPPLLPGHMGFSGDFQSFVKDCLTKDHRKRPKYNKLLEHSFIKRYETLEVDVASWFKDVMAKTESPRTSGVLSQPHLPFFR
The conditions noted are these: MKK7; 1 uM; read-out: Percent Control (%). The method in brief: (§1)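 Compounds were tested at 1 uM in DMSO against each enzyme in the panel. Percent control was calculated as (compound − positive control)/(negative control − positive control) × 100, and a compound was scored active on a kinase when this value fell below 35.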

Test [2] addresses T2, scanMAX Kinase assay panel (Homo sapiens, UniProt Q9NYL2).
T2 construct: purchased DiscoverX
The settings on record: ZAK; 1 uM; read-out: Percent Control (%). The method in brief:
as §1

Test [3] concerns the target T3, scanMAX Kinase assay panel (Homo sapiens, UniProt Q86Y07).
T3 construct: purchased DiscoverX
The settings on record: VRK2; 1 uM; read-out: Percent Control (%). Summed up:
as §1

Test [4] deals with T4, scanMAX Kinase assay panel (Homo sapiens, UniProt Q12851).
T4 construct: purchased DiscoverX
T4 sequence (Q12851 1-820): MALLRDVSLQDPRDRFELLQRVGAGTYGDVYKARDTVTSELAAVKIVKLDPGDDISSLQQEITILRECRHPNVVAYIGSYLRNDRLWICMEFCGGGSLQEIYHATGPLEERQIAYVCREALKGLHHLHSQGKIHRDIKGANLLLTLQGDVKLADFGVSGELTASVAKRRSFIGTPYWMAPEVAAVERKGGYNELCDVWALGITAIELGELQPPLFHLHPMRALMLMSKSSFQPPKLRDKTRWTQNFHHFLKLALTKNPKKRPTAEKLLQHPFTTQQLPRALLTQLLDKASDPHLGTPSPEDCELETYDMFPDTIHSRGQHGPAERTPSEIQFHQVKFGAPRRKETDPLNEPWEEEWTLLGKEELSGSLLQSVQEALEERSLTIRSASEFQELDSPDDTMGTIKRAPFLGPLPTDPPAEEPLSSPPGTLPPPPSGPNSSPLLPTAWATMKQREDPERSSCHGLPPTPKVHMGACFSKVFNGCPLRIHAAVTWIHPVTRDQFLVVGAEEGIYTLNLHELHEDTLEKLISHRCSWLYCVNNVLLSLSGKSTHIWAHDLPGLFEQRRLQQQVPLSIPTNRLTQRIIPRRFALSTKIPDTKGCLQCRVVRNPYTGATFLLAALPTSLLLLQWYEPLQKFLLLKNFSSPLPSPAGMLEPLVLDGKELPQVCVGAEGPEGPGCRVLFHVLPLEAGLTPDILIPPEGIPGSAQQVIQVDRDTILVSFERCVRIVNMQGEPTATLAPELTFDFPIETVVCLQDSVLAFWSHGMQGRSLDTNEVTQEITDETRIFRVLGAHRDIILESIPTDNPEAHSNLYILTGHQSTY
The conditions noted are these: MAP4K2; 1 uM; read-out: Percent Control (%). Summed up:
as §1

Test [5] addresses T5, scanMAX Kinase assay panel (Homo sapiens, UniProt P54760).
T5 construct: purchased DiscoverX
T5 sequence (P54760 16-987): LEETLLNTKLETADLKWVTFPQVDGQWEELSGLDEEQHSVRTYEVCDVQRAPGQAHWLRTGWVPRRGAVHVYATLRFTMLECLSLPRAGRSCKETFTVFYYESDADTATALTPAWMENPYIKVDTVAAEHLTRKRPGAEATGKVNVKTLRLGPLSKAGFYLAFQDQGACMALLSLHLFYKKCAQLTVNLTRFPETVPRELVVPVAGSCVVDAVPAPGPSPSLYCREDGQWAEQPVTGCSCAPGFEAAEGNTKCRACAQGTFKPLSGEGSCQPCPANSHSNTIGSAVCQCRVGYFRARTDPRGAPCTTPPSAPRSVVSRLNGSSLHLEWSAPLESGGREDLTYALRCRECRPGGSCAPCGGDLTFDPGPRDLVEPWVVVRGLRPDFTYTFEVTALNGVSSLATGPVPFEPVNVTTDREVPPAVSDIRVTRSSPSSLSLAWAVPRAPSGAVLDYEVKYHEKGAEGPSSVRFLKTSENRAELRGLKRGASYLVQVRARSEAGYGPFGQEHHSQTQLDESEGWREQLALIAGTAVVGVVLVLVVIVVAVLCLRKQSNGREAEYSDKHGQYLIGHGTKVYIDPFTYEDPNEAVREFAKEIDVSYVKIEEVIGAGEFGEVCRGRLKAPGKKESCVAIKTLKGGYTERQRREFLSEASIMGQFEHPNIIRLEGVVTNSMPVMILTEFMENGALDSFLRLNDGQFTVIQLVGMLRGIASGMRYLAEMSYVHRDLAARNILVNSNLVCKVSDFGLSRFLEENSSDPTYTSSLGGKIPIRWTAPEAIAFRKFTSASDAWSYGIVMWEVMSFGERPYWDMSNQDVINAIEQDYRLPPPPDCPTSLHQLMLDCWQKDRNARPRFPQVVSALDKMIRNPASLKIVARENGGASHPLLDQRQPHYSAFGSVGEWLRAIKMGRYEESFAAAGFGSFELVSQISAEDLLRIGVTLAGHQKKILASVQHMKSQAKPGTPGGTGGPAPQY
The conditions noted are these: EPHB4; 1 uM; read-out: Percent Control (%). Summed up: as §1

The target of test [6] is T6, scanMAX Kinase assay panel (Homo sapiens, UniProt P06213).
T6 construct: purchased DiscoverX
The settings on record: INSR; 1 uM; read-out: Percent Control (%). The method in brief:
as §1

In test [7] the target is T7, scanMAX Kinase assay panel (Homo sapiens, UniProt Q9BYP7).
T7 construct: purchased DiscoverX
The settings on record: WNK3; 1 uM; read-out: Percent Control (%). The method in brief: as §1

T2 sequence (Q9NYL2 whole entry): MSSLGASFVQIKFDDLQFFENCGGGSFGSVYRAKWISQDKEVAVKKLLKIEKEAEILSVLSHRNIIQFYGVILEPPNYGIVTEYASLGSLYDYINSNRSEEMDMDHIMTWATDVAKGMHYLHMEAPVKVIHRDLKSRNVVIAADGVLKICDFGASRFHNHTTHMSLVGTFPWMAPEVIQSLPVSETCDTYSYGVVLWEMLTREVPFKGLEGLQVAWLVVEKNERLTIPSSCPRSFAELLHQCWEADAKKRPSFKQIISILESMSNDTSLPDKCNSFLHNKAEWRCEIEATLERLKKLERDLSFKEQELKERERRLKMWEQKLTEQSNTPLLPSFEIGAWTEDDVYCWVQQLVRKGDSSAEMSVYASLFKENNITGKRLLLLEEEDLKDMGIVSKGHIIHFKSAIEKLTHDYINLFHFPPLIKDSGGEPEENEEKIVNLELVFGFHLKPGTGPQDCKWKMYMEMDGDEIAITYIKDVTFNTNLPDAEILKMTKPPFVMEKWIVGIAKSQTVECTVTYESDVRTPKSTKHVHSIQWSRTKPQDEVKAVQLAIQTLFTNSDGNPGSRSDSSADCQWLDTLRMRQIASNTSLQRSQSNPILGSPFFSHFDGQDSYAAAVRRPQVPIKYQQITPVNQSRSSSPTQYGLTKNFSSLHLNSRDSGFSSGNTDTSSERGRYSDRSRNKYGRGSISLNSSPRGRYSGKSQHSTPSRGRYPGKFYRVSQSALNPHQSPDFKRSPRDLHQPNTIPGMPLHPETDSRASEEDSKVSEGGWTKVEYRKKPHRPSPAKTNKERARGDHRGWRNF
T7 sequence (Q9BYP7 whole entry): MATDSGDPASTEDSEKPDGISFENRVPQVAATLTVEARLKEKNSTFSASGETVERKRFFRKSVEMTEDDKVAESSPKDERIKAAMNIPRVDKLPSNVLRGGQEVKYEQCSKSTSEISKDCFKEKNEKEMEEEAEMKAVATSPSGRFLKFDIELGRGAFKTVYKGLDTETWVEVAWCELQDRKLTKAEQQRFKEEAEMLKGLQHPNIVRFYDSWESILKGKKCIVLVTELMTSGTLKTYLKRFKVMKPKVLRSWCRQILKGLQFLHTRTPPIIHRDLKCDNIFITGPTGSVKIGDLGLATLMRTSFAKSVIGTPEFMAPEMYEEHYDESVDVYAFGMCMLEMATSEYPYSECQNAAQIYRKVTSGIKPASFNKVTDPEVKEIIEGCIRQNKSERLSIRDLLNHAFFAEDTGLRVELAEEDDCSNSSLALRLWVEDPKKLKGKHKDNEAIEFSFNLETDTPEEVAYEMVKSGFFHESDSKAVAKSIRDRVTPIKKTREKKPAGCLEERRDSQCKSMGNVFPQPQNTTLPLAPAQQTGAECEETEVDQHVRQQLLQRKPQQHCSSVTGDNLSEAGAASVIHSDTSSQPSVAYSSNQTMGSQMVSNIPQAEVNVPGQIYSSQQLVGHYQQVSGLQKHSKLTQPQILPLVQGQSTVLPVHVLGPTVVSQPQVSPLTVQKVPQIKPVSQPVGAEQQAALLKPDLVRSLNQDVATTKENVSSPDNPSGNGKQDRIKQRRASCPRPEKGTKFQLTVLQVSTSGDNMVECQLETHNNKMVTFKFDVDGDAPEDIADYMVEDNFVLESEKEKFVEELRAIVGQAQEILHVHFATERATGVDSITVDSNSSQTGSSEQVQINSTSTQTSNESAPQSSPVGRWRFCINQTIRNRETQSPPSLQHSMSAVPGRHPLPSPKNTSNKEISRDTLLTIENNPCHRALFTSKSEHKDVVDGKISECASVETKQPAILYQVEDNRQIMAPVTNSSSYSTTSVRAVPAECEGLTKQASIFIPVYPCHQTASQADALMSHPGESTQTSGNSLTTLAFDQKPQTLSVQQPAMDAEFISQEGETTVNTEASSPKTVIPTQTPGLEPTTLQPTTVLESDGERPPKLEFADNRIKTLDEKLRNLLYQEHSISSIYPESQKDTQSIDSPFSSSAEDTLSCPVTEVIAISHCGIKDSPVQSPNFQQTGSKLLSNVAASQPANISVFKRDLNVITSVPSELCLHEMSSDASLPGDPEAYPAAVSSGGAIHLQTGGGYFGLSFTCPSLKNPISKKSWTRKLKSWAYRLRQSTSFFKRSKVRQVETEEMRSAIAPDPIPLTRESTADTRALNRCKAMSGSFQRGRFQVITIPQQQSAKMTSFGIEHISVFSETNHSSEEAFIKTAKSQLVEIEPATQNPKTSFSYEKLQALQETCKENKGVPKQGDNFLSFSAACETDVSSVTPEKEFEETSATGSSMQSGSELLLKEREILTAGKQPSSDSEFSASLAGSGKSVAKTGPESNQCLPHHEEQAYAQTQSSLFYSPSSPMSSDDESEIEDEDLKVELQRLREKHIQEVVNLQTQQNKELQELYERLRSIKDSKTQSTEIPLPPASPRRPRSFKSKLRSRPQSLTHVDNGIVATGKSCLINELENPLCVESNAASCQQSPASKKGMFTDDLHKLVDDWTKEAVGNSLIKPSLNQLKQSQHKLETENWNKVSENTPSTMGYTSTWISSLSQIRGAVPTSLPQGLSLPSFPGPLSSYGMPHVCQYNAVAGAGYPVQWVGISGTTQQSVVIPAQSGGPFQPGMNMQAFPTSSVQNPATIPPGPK
T6 sequence (P06213 28-1382): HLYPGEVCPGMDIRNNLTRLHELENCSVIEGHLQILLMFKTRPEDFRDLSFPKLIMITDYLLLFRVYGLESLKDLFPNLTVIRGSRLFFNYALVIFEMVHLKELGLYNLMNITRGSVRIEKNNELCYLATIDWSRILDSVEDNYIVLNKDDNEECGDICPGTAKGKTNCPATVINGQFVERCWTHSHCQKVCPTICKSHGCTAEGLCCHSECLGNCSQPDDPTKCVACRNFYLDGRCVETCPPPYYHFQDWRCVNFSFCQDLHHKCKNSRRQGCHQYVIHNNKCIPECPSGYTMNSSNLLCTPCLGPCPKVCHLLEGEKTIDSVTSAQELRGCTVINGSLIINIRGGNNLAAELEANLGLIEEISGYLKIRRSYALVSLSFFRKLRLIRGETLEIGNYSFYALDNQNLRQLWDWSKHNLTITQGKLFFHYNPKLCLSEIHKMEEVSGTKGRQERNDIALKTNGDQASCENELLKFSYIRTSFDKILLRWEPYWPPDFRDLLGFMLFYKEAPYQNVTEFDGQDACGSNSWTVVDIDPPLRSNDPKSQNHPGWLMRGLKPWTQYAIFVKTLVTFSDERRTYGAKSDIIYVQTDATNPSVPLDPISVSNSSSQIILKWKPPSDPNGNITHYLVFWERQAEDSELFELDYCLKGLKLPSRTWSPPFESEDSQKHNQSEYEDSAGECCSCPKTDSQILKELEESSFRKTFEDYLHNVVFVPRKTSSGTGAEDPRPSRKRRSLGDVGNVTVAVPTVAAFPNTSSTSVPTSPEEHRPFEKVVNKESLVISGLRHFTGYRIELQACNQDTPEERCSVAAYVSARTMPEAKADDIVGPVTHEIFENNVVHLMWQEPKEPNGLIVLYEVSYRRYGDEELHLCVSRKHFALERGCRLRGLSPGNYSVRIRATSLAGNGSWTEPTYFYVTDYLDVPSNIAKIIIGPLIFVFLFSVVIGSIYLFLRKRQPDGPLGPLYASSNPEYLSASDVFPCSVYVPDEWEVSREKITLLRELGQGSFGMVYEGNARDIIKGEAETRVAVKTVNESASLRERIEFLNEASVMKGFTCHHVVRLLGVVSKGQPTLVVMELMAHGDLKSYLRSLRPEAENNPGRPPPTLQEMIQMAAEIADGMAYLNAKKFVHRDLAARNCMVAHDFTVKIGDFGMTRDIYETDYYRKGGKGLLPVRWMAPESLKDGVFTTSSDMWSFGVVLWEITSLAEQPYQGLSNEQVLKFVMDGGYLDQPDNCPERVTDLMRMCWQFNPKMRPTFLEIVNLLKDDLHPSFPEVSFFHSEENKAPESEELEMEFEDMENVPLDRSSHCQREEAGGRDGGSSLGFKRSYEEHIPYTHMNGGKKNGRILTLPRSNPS
T3 sequence (Q86Y07 whole entry): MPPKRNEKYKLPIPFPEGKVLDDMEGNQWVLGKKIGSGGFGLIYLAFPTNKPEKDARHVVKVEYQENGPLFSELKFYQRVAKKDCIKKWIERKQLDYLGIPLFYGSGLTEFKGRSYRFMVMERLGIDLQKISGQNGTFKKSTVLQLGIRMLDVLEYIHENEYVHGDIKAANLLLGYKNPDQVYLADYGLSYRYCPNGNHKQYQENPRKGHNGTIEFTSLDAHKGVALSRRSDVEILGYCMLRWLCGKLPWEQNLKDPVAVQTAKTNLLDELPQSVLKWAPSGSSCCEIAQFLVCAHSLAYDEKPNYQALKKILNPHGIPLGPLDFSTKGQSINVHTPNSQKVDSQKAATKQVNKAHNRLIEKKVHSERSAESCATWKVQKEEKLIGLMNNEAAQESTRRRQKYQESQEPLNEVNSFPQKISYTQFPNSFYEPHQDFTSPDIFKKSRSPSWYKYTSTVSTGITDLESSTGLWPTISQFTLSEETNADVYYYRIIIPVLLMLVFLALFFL

`Cc1ccc(C(=O)Nc2ccc(CN3CCN(C)CC3)c(C(F)(F)F)c2)cc1C#Cc1cnc2c(Nc3cnn(C)c3)cccn12` [Example 1, 4-methyl-3-((8-((1-methyl-1H-pyrazol-4-yl)amino)imidazo[1,2-a]pyridin-3-yl)ethynyl)-N-(4-((4-methylpiperazin-1-yl)methyl)-3-(trifluoromethyl)phenyl)benzamide]: the remaining binding at 1 µM was 90% in test [1]; 1% in test [2]; 86% in test [3]; 1% in test [4]; 3% in test [5]; 54% in test [6]. Besides, in test [7], the remaining binding at 1 µM was determined as 85%.
On to `Cc1ccc(NC(=O)C2(C(=O)Nc3ccc(F)cc3)CC2)cc1C#Cc1cnc2c(Nc3cnn(C(C)C)c3)cccn12` [Example 78], for which the remaining binding at 1 µM stood at 99% in test [1]; 19% in test [2]; 100% in test [3]; 100% in test [4]; 100% in test [5]; 100% in test [6]. Also, in test [7], the remaining binding at 1 µM came to 100%.
`Cc1cn(-c2cc(NC(=O)c3ccc(C)c(C#Cc4cnc5c(Nc6cnn(C)c6)cccn45)c3)cc(C(F)(F)F)c2)cn1` [Example 12, 4-methyl-N-(3-(4-methyl-1H-imidazol-1-yl)-5-(trifluoromethyl)phenyl)-3-((8-((1-methyl-1H-pyrazol-4-yl)amino)imidazo[1,2-a]pyridin-3-yl)ethynyl)benzamide]: the remaining binding at 1 µM turned out to be 100% in test [1]; 1% in test [2]; 100% in test [3]; 98% in test [4]; 41% in test [5]; 99% in test [6]. The remaining binding at 1 µM in test [7] is 100%.
